In patent US20220071985A1, “QUINOLINE DERIVATIVES FOR USE IN THE TREATMENT OR PREVENTION OF CANCER” (ABIVAX, priority 2018, published 2022):

Legend:
Type in all cases: cell-based
[1] = system: CR0205 cell line (Large intestine/Colorectum); assay: CellTiter-Glo cell viability assay, CR0205; settings: Homo sapiens, 168 h, 7 days drug treatment
Method: (§1) All cell lines are hyman primary cell lines cultured in DMEM/F12+10% FBS+supplemental growth factors, at 37° C. with 5% C02, as explained below. The cell lines are from large intestine/colorectum, stomach, liver, lung or pancreas (see table below). • DMEM/F12 (high glucose) (Gibco, Cat #11320033) • FBS (Cat #FND500, ExCell Bio) • CellTiter-Glo® Luminescent Cell Viability Assay (Cat # G7571, Promega. Stored at −20° C.). • 96 wells plate (Cat #3610, Corning) • DMEM/F12 medium (low glucose): 1:1 mixture of DMEM (low glucose) (Gibco, Cat #11885076) and F-12K (Gibco, Cat #21127022)
(§2) 1. Each well of a 96-well plate contains 90 μL of cell suspension with cells. The number of cells to be seeded is determined on the basis of a Cell Density Optimization Assay. 2. All 96-wells plates with cells are placed in an incubator overnight at 37° C. with 5% CO2.
(§3) 3. Dilute ABX464 and add 10 μL/well of ABX464 at the concentrations indicated (see plate map below). The final volume is 100 μL/well.
(§4) 4. Replace the old medium by pre-prepared fresh medium with ABX464 at the same concentrations indicated. The final volume is 100 μL/well.
(§5) 5. Cells are observed under a microscope ensuring the cells treated with vehicle control are in good condition. 6. Add 50 μL of CellTiter-Glo® Reagent to each well. 7. […] Record luminescence using an EnVision Multi Label Reader. […]

[2] = system: CR3085 cell line (Large intestine/Colorectum); assay: CellTiter-Glo cell viability assay, CR3085; settings: Homo sapiens
Method: as §1
(§6) Two types of cell lines have been tested for the compound 26, namely CR3085 (Large intestine/Colorectum) and GA0060 (stomach), as shown below.
as §2, §3, §4
(§7) 5. Cells are observed under a microscope ensuring the cells treated with vehicle control are in good condition. 6. Add 50 μL of CellTiter-Glo® Reagent to each well. 7. Mix contents for 2 minutes on an orbital shaker to facilitate cell lysis. 8. Allow the plate to incubate at room temperature for 10 minutes to stabilize luminescent signals. 9. Record luminescence using an EnVision Multi Label Reader.
(§8) Data analysis is performed using GraphPad Prism 7.0. To calculate IC50s, a dose-response curve is generated using a nonlinear regression model with a sigmoidal dose response. The formula of surviving rate is shown below, and the IC50s will be automatically generated by GraphPad Prism 7.0.
(§9) LumNone treated-LumMedium control is set as 100%.

[3] = system: CR3150 cell line (Large intestine/Colorectum); assay: CellTiter-Glo cell viability assay, CR3150; settings: Homo sapiens, 168 h, 7 days drug treatment
Method: as §1, §2, §3, §4, §5

[4] = system: GA0060 cell line (Stomach); assay: CellTiter-Glo cell viability assay, GA0060; settings: Homo sapiens
Method: as §1, §6, §2, §3, §4, §7, §8, §9

LI0612 cell line (Liver) = assay: CellTiter-Glo cell viability assay, LI0612; settings: Homo sapiens, 168 h, 7 days drug treatment
Method: as §1, §2, §3, §4, §5

LU0387 cell line (Lung) = assay: CellTiter-Glo cell viability assay, LU0387; settings: Homo sapiens, 168 h, 7 days drug treatment
Method: as §1, §2, §3, §4, §5

LU2511 cell line (Lung) = assay: CellTiter-Glo cell viability assay, LU2511; settings: Homo sapiens, 168 h, 7 days drug treatment
Method: as §1, §2, §3, §4, §5

[5] = system: PA0692 cell line (Pancreas); assay: CellTiter-Glo cell viability assay, PA0692; settings: Homo sapiens, 168 h, 7 days drug treatment
Method: as §1, §2, §3, §4, §5

[6] = system: PA1266 cell line (Pancreas); assay: CellTiter-Glo cell viability assay, PA1266; settings: Homo sapiens, 168 h, 7 days drug treatment
Method: as §1, §2, §3, §4, §5

[7] = system: PA1405 cell line (Pancreas); assay: CellTiter-Glo cell viability assay, PA1405; settings: Homo sapiens, 168 h, 7 days drug treatment
Method: as §1, §2, §3, §4, §5

[8] = system: PA3060 cell line (Pancreas); assay: CellTiter-Glo cell viability assay, PA3060; settings: Homo sapiens, 168 h, 7 days drug treatment
Method: as §1, §2, §3, §4, §5

[9] = 168 h, CR3085, Large intestine/Colorectum, 7 days drug treatment, CellTiter-Glo
[10] = 168 h, GA0060, Stomach, 7 days drug treatment, CellTiter-Glo

FC(F)(F)Oc1ccc(Nc2ccc3cccc(Cl)c3n2)cc1 [ABX464, 8-Chloro-N-(4-(trifluoromethoxy)phenyl)quinolin-2-amine]
IC50 [1]: 7.26 µM
IC50 [2, 9]: 80 nM
IC50 [3]: 870 nM
IC50 [4, 10]: 0.6 µM
IC50 (LI0612 cell line (Liver)): 4.75 µM
IC50 (LU0387 cell line (Lung)): 9.49 µM
IC50 (LU2511 cell line (Lung)): 7.11 µM
IC50 [5]: 9.63 µM
IC50 [6]: 3.44 µM
IC50 [7]: 6.2 µM
IC50 [8]: 3.71 µM

FC(F)(F)c1ccc(Nc2ccc3cccc(Cl)c3n2)nc1 [Comparative compound 26, 8-chloro-N-(5-(trifluoromethyl)pyridin-2-yl)quinolin-2-amine]
IC50 [2, 9]: 170 nM
IC50 ([2]; cell line Large intestine/Colorectum CR3085, restated in text without unit): 170 nM
IC50 [4, 10]: > 10 µM
IC50 ([4]; cell line stomach GA0060, restated in text without unit): > 10 µM
